Data on 2 compounds can be found in patent EP2478902A1, “PHARMACEUTICAL COMPOSITION FOR REDUCING WEIGHT AND METHOD FOR THE PRODUCTION THEREOF” (World-Trade Import-Export Wtie, AG, priority 2009, dated 2011).

For experiment [1] the following is noted: 3,000 mg/day of L-Carnitine, 10 weeks, calorie restriction, increased physical activity; cited from earlier work.
For experiment [2] the following is noted: 15 mg/kg/day of L-Carnitine, 26 weeks, cited from earlier work.
The conditions of experiment [3]: 2,000 mg/day of L-Carnitine, 26 weeks, diet of 1,400 to 1,600 Kcal/day; cited from earlier work.
A short description of experiment [4]: Comparative, open-label, controlled clinical trial of Orlistat/L-Carnitine (OL-CA) vs Orlistat (OL) and L-Carnitine (CA) in adults with overweight above 10 %. The format is in vivo, human. Conditions: end of treatment (12 weeks), n = 20 per group; for subjects who reached a normal weight: one capsule a day. The protocol: A randomised, parallel, cross-over, prospective, open-label clinical trial.
Male and/or female subjects aged above 18 years, with overweight above 10 % their ideal weight.
• Group 1. Orlistat (OL) 120 mg, one capsule a day for 12 weeks. • Group 2. L-Carnitine (CA) 600 mg, one capsule a day for 12 weeks. • Group 3. Orlistat 120 mg and L-Carnitine 600 mg (OL-CA) in one capsule a day for 12 weeks.
• No other drug therapy was permitted for obesity and overweigh using any administration route during the clinical trial.
• Three treatment groups with random distribution 1:!;1
• Male and/or female subjects over 18 years of age. • Overweight above 10 % of their ideal weight or a Body Mass Index (BMI) of 28 kg/m2 or higher. • Poor response to previous diet therapy. • No participation in a clinical trial with a test drug or device for 30 days before the planned start of treatment. • Patients with or without risk factors associated with obesity (type 2 diabetes and systemic hypertension). • Following a nutritionally balanced and moderately hypocaloric plan containing about 30 % of calories from fat. • Women with child-bearing potential should use some contraceptive method during the treatment.
• Under 18 years of age • History of hypersensitivity to the components of the formula • Patients with any organ failure • Patients with a history of intolerance to lactose • Patients with a history of bowel malabsorption syndrome and cholestasis • Patients with suspected or diagnosed pancreatic disorder • Pregnant and/or nursing women • Diagnosed or suspected thyroid disorder • Patients currently on anticoagulants or cyclosporine and amiodarone.
Randomisation in to the study was stratified at a 1:1:1 ratio. The subjects were classified according to their body mass index. • Group A, 20 subjects with overweight, BMI of 25 to 29.9 kg/m2 • Group B, 20 subjects with grade 2 obesity, BMI of 30-39 kg/m2 • Group C, 20 subjects with grade 3 obesity BMI above 40 kg/m2 With regard to the BMI, the following values and interpretation are given • BMI 20 to 25 kg/m^2 = normal weight • BMI 25 to 29.9 kg/m^2 = Overweight • BMI 30 to 39 kg/m^2 - Grade 2 obesity • BMI above 40 kg/m^2 = Grade 3 obesity

For the compound `C[N+](C)(C)C[C@H](O)CC(=O)[O-]` [CA, L-Carnitine], the “weight loss between the two groups” value in experiment [1] is recorded as “No significant weight loss”. Moreover, in experiment [2] (restriction of 1,500 Kcal in diet, 60 subjects with obesity), the “weight loss in the treatment group” value is 1.9 kg. Moreover, the “weight loss (significance)” value in experiment [2] is listed as “not significant”. For the same compound, the “weight loss or differences between the groups at the end of the study” value in experiment [3] is on record as “No significant weight loss or differences between the groups”. In addition, in experiment [4], the “patients reaching grade 2 obesity” value is reported as 75%, the “patients reaching grade 2 obesity (number)” value is on record as 15 subjects, the “subjects who documented overweight” value amounted to 15% and the “subjects who documented overweight (number)” value is 3 subjects. In experiment [4], the “subjects who reached a normal weight (number)” value is given as “one”, the “subjects with grade 3 obesity” value is 5%, the “subjects with grade 3 obesity (number)” value turned out to be 1 subjects and the “subjects who reached a normal weight” value worked out at 5%.
`CCCCCCCCCCC[C@@H](C[C@@H]1OC(=O)[C@H]1CCCCCC)OC(=O)[C@H](CC(C)C)NC=O` [OL]: in experiment [4], the “patients reaching grade 2 obesity” value amounted to 65%, the “patients reaching grade 2 obesity (number)” value is listed as 13 subjects, the “subjects who documented overweight” value worked out at 10% and the “subjects who documented overweight (number)” value is 2 subjects. In experiment [4], the “subjects who reached a normal weight (number)” value is listed as “one”, the “subjects with grade 3 obesity” value is 20%, the “subjects with grade 3 obesity (number)” value amounted to 4 subjects and the “subjects who reached a normal weight” value is 5%.
